# Molecular target: T1, PI3Kδ (Homo sapiens, UniProt O00329)
# T1 construct: The protein is full length and co-expressed with untagged PIK3R1; GST; purchased Invitrogen PV5274
# Test: PI3Kδ inhibition, modified PIK3CD Adapta TR-FRET assay
# Format: biochemical
# Details: recombinant GST-tagged full length PIK3CD co-expressed with PIK3R1 (p85α); 2 μM ATP, 50 μM PIP2; read-out: PI3Kδ Inhibition (pIC50) (converted)
# Summary of the method: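 Full-length GST-PIK3CD co-expressed with p85α was run in 50 mM HEPES pH 7.5, 3 mM MgCl2, 1 mM EGTA, 100 mM NaCl, 0.03% CHAPS, 2 mM DTT, 1% DMSO, with 12-point compound titrations. Reactions at room temperature were started with solution containing 2 μM ATP and 50 μM PIP2. ADP was detected by Adapta TR-FRET (620 nm-ratioed).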
# T1 sequence (O00329 whole entry): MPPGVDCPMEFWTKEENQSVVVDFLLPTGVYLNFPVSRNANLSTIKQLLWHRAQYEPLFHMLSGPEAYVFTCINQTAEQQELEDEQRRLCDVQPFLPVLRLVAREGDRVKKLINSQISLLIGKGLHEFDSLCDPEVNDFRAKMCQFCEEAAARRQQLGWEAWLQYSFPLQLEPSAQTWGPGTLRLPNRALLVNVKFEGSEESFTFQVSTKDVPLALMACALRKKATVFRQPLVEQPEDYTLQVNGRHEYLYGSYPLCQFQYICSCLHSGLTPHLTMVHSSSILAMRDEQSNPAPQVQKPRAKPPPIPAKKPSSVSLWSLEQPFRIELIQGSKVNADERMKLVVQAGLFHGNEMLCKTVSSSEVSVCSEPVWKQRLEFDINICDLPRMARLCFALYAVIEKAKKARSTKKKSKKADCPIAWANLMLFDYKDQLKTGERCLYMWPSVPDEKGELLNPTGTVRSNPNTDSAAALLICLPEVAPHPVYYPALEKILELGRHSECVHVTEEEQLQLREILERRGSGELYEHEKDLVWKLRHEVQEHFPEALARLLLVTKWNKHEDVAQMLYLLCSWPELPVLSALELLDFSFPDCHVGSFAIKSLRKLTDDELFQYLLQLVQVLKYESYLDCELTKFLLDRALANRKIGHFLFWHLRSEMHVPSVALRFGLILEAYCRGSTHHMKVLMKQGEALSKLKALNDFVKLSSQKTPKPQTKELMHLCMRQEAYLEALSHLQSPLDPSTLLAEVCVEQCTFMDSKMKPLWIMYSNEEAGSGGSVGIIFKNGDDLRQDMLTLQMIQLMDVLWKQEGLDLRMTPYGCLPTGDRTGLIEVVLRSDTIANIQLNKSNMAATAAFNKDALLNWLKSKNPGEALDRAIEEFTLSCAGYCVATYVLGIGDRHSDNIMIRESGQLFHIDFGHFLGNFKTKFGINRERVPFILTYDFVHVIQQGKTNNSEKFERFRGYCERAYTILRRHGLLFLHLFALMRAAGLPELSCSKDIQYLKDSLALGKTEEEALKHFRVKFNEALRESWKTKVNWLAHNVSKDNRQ
# T1 sequence (P27986 whole entry partner): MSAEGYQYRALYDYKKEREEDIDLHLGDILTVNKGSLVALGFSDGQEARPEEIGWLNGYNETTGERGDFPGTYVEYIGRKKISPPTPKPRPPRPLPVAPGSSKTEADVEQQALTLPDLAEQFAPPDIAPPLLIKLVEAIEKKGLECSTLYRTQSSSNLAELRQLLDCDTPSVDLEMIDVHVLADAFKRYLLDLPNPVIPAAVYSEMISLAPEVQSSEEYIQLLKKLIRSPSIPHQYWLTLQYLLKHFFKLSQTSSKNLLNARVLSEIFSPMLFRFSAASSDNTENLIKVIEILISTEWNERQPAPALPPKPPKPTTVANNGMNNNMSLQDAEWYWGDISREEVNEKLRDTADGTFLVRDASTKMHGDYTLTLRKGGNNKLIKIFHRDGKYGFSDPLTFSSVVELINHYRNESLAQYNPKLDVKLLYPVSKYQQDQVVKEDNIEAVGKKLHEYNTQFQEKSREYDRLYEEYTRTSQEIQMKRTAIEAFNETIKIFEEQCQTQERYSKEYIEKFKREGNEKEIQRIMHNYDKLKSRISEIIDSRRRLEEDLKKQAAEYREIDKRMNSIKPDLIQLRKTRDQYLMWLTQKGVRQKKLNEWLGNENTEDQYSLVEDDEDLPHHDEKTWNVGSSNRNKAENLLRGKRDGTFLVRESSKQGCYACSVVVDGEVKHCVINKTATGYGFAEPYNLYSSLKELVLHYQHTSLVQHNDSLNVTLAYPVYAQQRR
row,SMILES,IC50 [µM]
1,"CC(C)(O)CCCN1C[C@@H]2COCCN2c2nc(-c3cccc4[nH]ccc34)ncc21 [Example 227, (R)-5-(2-(1H-indol-4-yl)-6a,7,9,10-tetrahydro-[1,4]oxazino[3,4-h]pteridin-5(6H)-yl)-2-methylpentan-2-ol]",0.0158
2,"Cc1ccc(C(N)=O)c(CN2CC3COCCN3c3nc(-c4cccc5[nH]ccc45)ncc32)c1 (centres unmarked) [Example 228, 2-((2-(1H-indol-4-yl)-6a,7,9,10-tetrahydro-[1,4]oxazino[3,4-h]pteridin-5(6H)-yl)methyl)-4-methylbenzamide]",0.158
3,"O=C(Nc1ccc(-c2ncc3c(n2)N2CCOCC2C(=O)N3C2CCOCC2)cc1)NC1CC1 (centres unmarked) [Example 229, 1-cyclopropyl-3-(4-(6-oxo-5-(tetrahydro-2H-pyran-4-yl)-5,6,6a,7,9,10-hexahydro-[1,4]oxazino[3,4-h]pteridin-2-yl)phenyl)urea]",0.0316

# Next, values leading:
row,IC50 [µM],SMILES
1,1.58,"Cn1nccc1-c1ncc2c(n1)N1CCOC[C@H]1CN2CC(=O)NCC1CCOCC1 [Example 225, (R)-2-(2-(1-methyl-1H-pyrazol-5-yl)-6a,7,9,10-tetrahydro-[1,4]oxazino[3,4-h]pteridin-5(6H)-yl)-N-((tetrahydro-2H-pyran-4-yl)methyl)acetamide]"
2,0.501,"O=C(CN1C[C@@H]2COCCN2c2nc(-c3ccc(CO)s3)ncc21)NCC1CCOCC1 [Example 226, (R)-2-(2-(5-(hydroxymethyl)thiophen-2-yl)-6a,7,9,10-tetrahydro-[1,4]oxazino[3,4-h]pteridin-5(6H)-yl)-N-((tetrahydro-2H-pyran-4-yl)methyl)acetamide]"
